{"source": "paper PMC5052704", "about": "“Transition metal ion FRET uncovers K^+ regulation of a neurotransmitter/sodium symporter” (Nature Communications, 2016)", "target": "T1, LeuT (leucine transporter) (Aquifex aeolicus, UniProt O67854, R30A/A313H/A317H/K398C)", "T1 construct": "gene snf; full-length LeuT, C-terminal octahistidine tag with thrombin site, pET16b derivative, expressed in E. coli C41, purified in DDM; tmFRET variants labelled with fluorescein-5-maleimide", "experiment": "scintillation proximity assay, Na+-dependent [3H]leucine binding", "details": "5 μM [3H]leucine; pH 7.5; DDM; fluorescein-labelled at K398C; labelled compound", "data": [{"smiles": "CC(C)C[C@H](N)C(=O)O", "note": "[leucine]", "values": [{"measurement": "scintillation proximity assay, Na+-dependent [3H]leucine binding", "result": "Na^+ dependence of [^3H]leucine binding to R30A^tmFRET"}]}]}
